Experiments:
[1] = tested on: TAOK1 (neojunction transcript); assay: In vivo PD RT-qPCR in NCI-N87 tumors, TAOK1; design: species or system CB17-SCID mice; conditions: single IV 10 mg/kg; N=4; FIG. 24
[2] = tested on: FBXW5 (mature mRNA transcript); assay: In vivo PD RT-qPCR in NCI-N87 tumors, FBXW5; design: species or system CB17-SCID mice; conditions: single IV 10 mg/kg; N=4; FIG. 24
Ad2.2 pre-mRNA = assay: In vitro splicing (IVS) RT-qPCR, HeLa nuclear extract, Ad2.2; assay type: biochemical; conditions: biochemical splicing assay; corresponding free payload; read-out: qPCR-IVS-ATS GMean IC50 (nM) Ad2.2 HELA.2
Method: To evaluate payload activity in a cell-free system, an in vitro splicing assay was performed. The payloads were incubated with nuclear extracts and pre-mRNA substrate minigenes.
HeLa nuclear extract preparation: HeLa S3 cell pellets were resuspended in hypotonic buffer (10 mM HEPES pH 7.9, 1.5 mM MgCl2, 10 mM KCl, 0.2 mM PMSF, 0.5 mM DTT) and the suspension was brought up to a total of 5 packed cell volume (PCV). After centrifugation, the supernatant was discarded, and the cells were brought up to 3 PCV with hypotonic buffer and incubated on ice for 10 min. Cells were lysed using a dounce homogenizer and then centrifuged. […]. The nuclei were gently mixed for 30 min before centrifuging. The supernatant (nuclear extract) was then dialyzed into storage buffer (20 mM HEPES pH 7.9, 100 mM KCl, 0.2 mM EDTA, 20% glycerol, 0.2 mM PMSF, 0.5 mM DTT). Protein concentration was determined using NanoDrop 8000 UV-Vis spectrophotometer (ThermoFisher Scientific).
IVS: All Ad2-derived sequences (Pellizzoni et al. (1998) Cell 95(5):615-24) were cloned into pcDNA3.1(+) vector (Promega) using 5′ EcoRI and 3′ Xbal restriction sites. The plasmids were linearized using Xbal and used as DNA templates in in vitro transcription reactions. The FtzΔi intron-less plasmid (Luo and Reed (1999) 96(26):14937-42) was linearized using EcoRI. All RNAs were in vitro transcribed and then purified using MEGAScript T7 (Invitrogen) and MegaClear (Invitrogen) kits, respectively. For splicing reactions using Ad2 variant pre-mRNAs, 1 μL reactions were prepared using 8 μg nuclear extracts prepared from HeLa S3, 2 ng pre-mRNA, 0.2 ng FTZΔi, and varying concentrations of compounds or DMSO. After a 15 min pre-incubation at 30° C., 1 μL splicing activation buffer (0.5 mM ATP, 20 mM creatine phosphate, 1.6 mM MgCl2) was added, and the reactions were incubated for 90 min at 30° C. The reactions were then quenched with 13 μL DMSO, and 25 nL was used for RT-qPCR. RT-qPCR reactions were prepared using TaqMan RNA-to-CT 1-step kit (Life Technologies), RNA from splicing reactions, Ad2 (forward: […]; reverse: […]; probe: […]) and Ftz (forward: […]; reverse: […]; probe: […]) mRNA primer-probe sets. Prism 7 (Graphpad) was used for non-linear regression curve fitting of the formed spliced product and normalized to the control (DMSO) sample. […] In the presence of payload, a decrease in the amount of spliced product was observed.

| SMILES | change of TAOK1 neojunction transcript in tumor [1] | change of FBXW5 mature mRNA transcript in tumor [2] | IC50 (Ad2.2 pre-mRNA) [nM] |
| --- | --- | --- | --- |
| CC[C@H](O)[C@@H](C)C1OC1C[C@@](C)(O)/C=C/C=C(\C)[C@H]1OC(=O)C[C@H](O)CC[C@@](C)(OC)[C@@H](OC(=O)N2CCN(CCN3C(=O)C=CC3=O)CC2)/C=C/[C@@H]1C (stereo in doubt) [ADL14-D1, (2S,3S,6S,7R,10R,E)-10-hydroxy-2-((R,2E,4E)-6-hydroxy-7-((2S,3S)-3-((2R,3S)-3-hydroxypentan-2-yl)oxiran-2-yl)-6-methylhepta-2,4-dien-2-yl)-7-methoxy-3,7-dimethyl-12-oxooxacyclododec-4-en-6-yl 4-(2-(2,5-dioxo-2,5-dihydro-1H-pyrrol-1-yl)ethyl)piperazine-1-carboxylate] | did not exhibit statistically significant changes | did not exhibit statistically significant changes | – |
| CC[C@H](O)[C@@H](C)[C@H]1O[C@@H]1C[C@@](C)(O)/C=C/C=C(\C)[C@H]1OC(=O)C[C@H](O)CC[C@@](C)(OC(C)=O)[C@@H](OC(=O)N2CCN(C(=O)OCc3ccc(NC(=O)[C@H](CCCNC(N)=O)NC(=O)[C@@H](NC(=O)CCCCCN4C(=O)C=CC4=O)C(C)C)cc3)CC2)/C=C/[C@@H]1C [ADL1-D4] | significant increases | significant depletion | – |
| CC(=O)N1CCC(n2nnc3c(F)cc(/C=C(\C)[C@H]4OC(=O)C[C@H](O)CC[C@H](C)[C@@H](OC(=O)N5CC[N+](C)(Cc6ccc(NC(=O)[C@H](C)NC(=O)[C@@H](NC(=O)CCCCCN7C(=O)C=CC7=O)C(C)C)cc6)CC5)/C=C/[C@@H]4C)cc32)CC1 [ADL5-D15, 4-((((2S,3S,6R,7S,10R,E)-2-((E)-1-(1-(1-acetylpiperidin-4-yl)-4-fluoro-1H-benzo[d][1,2,3]triazol-6-yl)prop-1-en-2-yl)-10-hydroxy-3,7-dimethyl-12-oxooxacyclododec-4-en-6-yl)oxy)carbonyl)-1-(4-((S)-2-((S)-2-(6-(2,5-dioxo-2,5-dihydro-1H-pyrrol-1-yl)hexanamido)-3-methylbutanamido)propanamido)benzyl)-1-methylpiperazin-1-ium] | an increase in TAOK1, but did not reach statistical significance | significant depletion | – |
| CC[C@H](O)[C@@H](C)[C@H]1O[C@@H]1C[C@@](C)(O)/C=C/C=C(\C)[C@H]1OC(=O)C[C@H](O)CC[C@@](C)(OC(C)=O)[C@@H](OC(=O)N2CCN(CCN)CC2)/C=C/[C@@H]1C [D3, (2S,3S,6S,7R,10R,E)-7-acetoxy-10-hydroxy-2-((R,2E,4E)-6-hydroxy-7-((2R,3R)-3-((2R,3S)-3-hydroxypentan-2-yl)oxiran-2-yl)-6-methylhepta-2,4-dien-2-yl)-3,7-dimethyl-12-oxooxacyclododec-4-en-6-yl 4-(2-aminoethyl)piperazine-1-carboxylate] | – | – | 10.9 |
| CC[C@H](O)[C@@H](C)[C@H]1O[C@@H]1C[C@@](C)(O)/C=C/C=C(\C)[C@H]1OC(=O)C[C@H](O)CC[C@@](C)(OC(C)=O)[C@@H](OC(=O)N2C[C@@H]3C[C@H]2CN3)/C=C/[C@@H]1C [D5, (2S,3S,6S,7R,10R,E)-7-acetoxy-10-hydroxy-2-((R,2E,4E)-6-hydroxy-7-((2R,3R)-3-((2R,3S)-3-hydroxypentan-2-yl)oxiran-2-yl)-6-methylhepta-2,4-dien-2-yl)-3,7-dimethyl-12-oxooxacyclododec-4-en-6-yl (1S,4S)-2,5-diazabicyclo[2.2.1]heptane-2-carboxylate] | – | – | 23.9 |

Source: US11945807B2, “Splicing modulator antibody-drug conjugates and methods of use” (EISAI R&D MANAGEMENT CO., LTD., priority 2018, dated 2024)
